Results published in patent publication US20140243416A1, “Topical Antiandrogen Therapy for the Treatment of Becker's Nevus” (priority 2013, published 2014).

Key:
Becker's nevus = test: Topical flutamide applied to a Becker's nevus (Example 1, single patient); assay type: in vivo, person; settings: topical 4% solution, twice daily
Description: FIG. 1a (left) depicts a person with a Becker's nevus before the antiandrogen treatment as described in example 1. FIG. 1b (right) depicts a person after treatment with a topical antiandrogen, specifically topical flutamide. […] A topical 4% solution of flutamide was applied twice daily to a Becker's nevus. […] (FIG. 1)

[1] = topical application; cited from earlier work

pigmentary change in the normal skin surrounding the Becker's nevus (Becker's nevus; during treatment): no pigmentary change
menstrual irregularities (Becker's nevus; patient-reported): denied any menstrual irregularities
SMILES: CC(C)C(=O)Nc1ccc([N+](=O)[O-])c(C(F)(F)F)c1 [flutamide, methyl-N-[4-nitro-3-(trifluoromethyl)phenyl]-propanamide]
cutaneous or systemic adverse effects (Becker's nevus): No cutaneous or systemic adverse effects
absorption into the skin and systemic absorption [1]: systemic absorption is measurable
